Experimental data: patent US20240041898A9, “NEUROSTEROIDS AND ENANTIOMERS THEREOF FOR THE PREVENTION AND TREATMENT OF NEURODEGENERATIVE CONDITIONS” (priority 2019, published 2024)
“And” between values parts separate entries of the source, which are not always exact repeats. Equal entries are not always repeated.

Test system: p62
Assay: Ex vivo pressure-loaded retinas, Western blot of p62
Format: cell-based, rat
Conditions: ex vivo, 75 mmHg; for p62 expression (FIG. 2S), individual experiments 1-5: 1 μM, relative units, 10 mmHg = 1.00
Protocol: Rat ex vivo Eyecup Preparation—Rat ex vivo eyecups were prepared from 28-32 day old male Sprague-Dawley rats (Charles River Laboratories International Inc., Wilmington, MA). The anterior half of the enucleated eyes was carefully removed to make eyecup preparations. Eyecups were placed at the bottom of a 100 ml glass beaker filled with aCSF (artificial cerebrospinal fluid) containing (in mM): 124 NaCl, 5 KCl, 2 MgSO4, 2 CaCl2, 1.25 NaH2PO4, 22 NaHCO3, and 10 glucose, and incubated at 30° C. for 24 hours using a closed pressure-loading system (FIG. 1C). pH was maintained at 7.35 to 7.40. In the closed-pressure system, a glass beaker with the eyecup was placed at the bottom of an acrylic pressure chamber (2,000 ml volume). A 95% O2-5% CO2 gas mixture was delivered through disposable plastic tubing with an infusion valve and a control dial on the lid of the pressure chamber and an air filter (Cat #SLGP033RS, Merck Millipore, Billerica, MA). The plastic tubing delivering the gas terminated 1 cm above the bottom of the beaker.
Acutely prepared eyecups were incubated in gassed aCSF for at least 1 h at 30° C. before pressure loading. In some experiments, AlloP (1 μM), ent-AlloP (1 μM), and 3-MA (10 mM) were dissolved in aCSF at the time of experiment and administered by bath perfusion. Eyecup preparations were treated with these drugs for 1 h at 30° C. before pressure loading. For pressure loading, the 95% O2-5% CO2 gas mixture was infused until the pressure reading given by a manometer reached the appropriate level. The pressure was then locked by adjusting the control dial of the effusion valve, and monitored continuously for 24 h at 30° C.
Western Blot Analysis—At the end of each experiment, the posterior segments of the eye were placed on a flat cutting surface and immersed in ice-cold aCSF. With a surgical blade, the retina was carefully and gently detached from the sclera with a fine forceps. The isolated retinas were frozen at −80° C. Retinas were then homogenized in lysis buffer solution (CelLytic MT; Sigma-Aldrich, Inc.) with protease inhibitor cocktail (Sigma-Aldrich, Inc.), prepared according to the manufacturer's instructions. The tissue extracts were ultrasonicated and clarified by centrifugation at 12,000 g for 20 minutes at 4° C. The protein concentrations in supernatants were assayed (Quant-iT assay kit; Invitrogen Corp., Carlsbad, CA). Twenty micrograms of retinal extract were subjected to SDS polyacrylamide gel electrophoretic analysis. The proteins were then transferred to a PVDF. Immunoblots by polyclonal rabbit anti-LC3B antibody (MBL Life Science) or anti-SQSTMl/p62 mouse monoclonal antibody (Abcam) were visualized using WesternBreeze Chemiluminescent Immunodetection system (Invitrogen) with the exposure time to autoradiograph film (MXJB Plus; Kodak, Rochester, NY) adjusted to avoid over- or undersaturation. Precision Plus Protein™ Western Standards (Bio-Rad, Hercules, CA) followed by Precision Protein™ strep Tactin-AP conjugate (Bio-Rad) was used for a molecular marker of LC3. […]
The density of Western blot bands was quantified using Image-Pro Plus software. Quantification was adjusted to protein expression at 10 mmHg after normalization to the β-actin band at each pressure, and the relative gray-scale value was calculated by densitometric analysis of the obtained bands. […] Differences in expression levels were evaluated using Wilcoxon Rank-Sum Test, Tukey's or Dunnett's multiple comparison test. […]

Row | Structure (SMILES) | p62 expression (FIG. 2S), individual experiments 1-5 (single values) | p62 expression after 3-MA treatment (FIG. 3H), Average (1 μM ent-AlloP, 10 mM 3-MA, relative, ent-AlloP = 1.00, Average of 4) | p62 expression after 3-MA treatment (FIG. 3H), individual experiments 1-4 (1 μM ent-AlloP, 10 mM 3-MA, relative, ent-AlloP = 1.00, single values)
1 | CC(=O)[C@H]1CC[C@H]2[C@@H]3CC[C@H]4C[C@H](O)CC[C@]4(C)[C@H]3CC[C@]12C [AlloP, allopregnanolone] | 1.96 and 2.18 and 2.05 and 0.84 and 2.81 |  | 
2 | CC(=O)[C@@H]1CC[C@@H]2[C@H]3CC[C@@H]4C[C@@H](O)CC[C@@]4(C)[C@@H]3CC[C@]21C [ent-AlloP, ent-allopregnanolone] | 0.92 and 0.40 and 1.00 and 0.28 and 1.08 | 1.00 | 1.00
